The term IC50 denotes the concentration needed to halve the response being measured.

Drawing on patent US9382234B2, “Enhancer of Zeste Homolog 2 inhibitors” (GlaxoSmithKline LLC, priority 2012, dated 2016), this text covers IC50 for 17 compounds.

This assay deals with T1, EZH2 within the PRC2 complex (Homo sapiens, UniProt Q15910).
T1 construct: FLAG; made in house; host or cells: Sf9 cells
T1 sequence (Q15910 whole entry): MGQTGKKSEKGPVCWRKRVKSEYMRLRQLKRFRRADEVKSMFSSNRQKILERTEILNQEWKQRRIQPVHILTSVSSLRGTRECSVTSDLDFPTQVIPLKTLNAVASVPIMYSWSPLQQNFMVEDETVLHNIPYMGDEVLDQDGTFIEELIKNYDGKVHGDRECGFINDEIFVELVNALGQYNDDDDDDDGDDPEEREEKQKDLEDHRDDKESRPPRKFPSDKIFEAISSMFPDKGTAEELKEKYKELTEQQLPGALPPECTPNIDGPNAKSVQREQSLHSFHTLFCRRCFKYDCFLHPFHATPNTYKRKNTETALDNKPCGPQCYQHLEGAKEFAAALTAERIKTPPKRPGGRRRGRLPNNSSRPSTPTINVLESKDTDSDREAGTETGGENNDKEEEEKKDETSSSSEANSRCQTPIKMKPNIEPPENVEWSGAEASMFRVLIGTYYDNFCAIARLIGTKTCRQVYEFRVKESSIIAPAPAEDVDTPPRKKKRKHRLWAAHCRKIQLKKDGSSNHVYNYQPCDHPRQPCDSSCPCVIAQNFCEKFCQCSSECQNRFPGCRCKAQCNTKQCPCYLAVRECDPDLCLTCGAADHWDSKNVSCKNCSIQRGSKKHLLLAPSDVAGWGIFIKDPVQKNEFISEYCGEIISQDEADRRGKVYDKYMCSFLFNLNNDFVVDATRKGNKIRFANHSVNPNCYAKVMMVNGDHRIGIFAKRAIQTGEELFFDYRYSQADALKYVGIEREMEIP
T1 sequence (O75530 whole entry partner): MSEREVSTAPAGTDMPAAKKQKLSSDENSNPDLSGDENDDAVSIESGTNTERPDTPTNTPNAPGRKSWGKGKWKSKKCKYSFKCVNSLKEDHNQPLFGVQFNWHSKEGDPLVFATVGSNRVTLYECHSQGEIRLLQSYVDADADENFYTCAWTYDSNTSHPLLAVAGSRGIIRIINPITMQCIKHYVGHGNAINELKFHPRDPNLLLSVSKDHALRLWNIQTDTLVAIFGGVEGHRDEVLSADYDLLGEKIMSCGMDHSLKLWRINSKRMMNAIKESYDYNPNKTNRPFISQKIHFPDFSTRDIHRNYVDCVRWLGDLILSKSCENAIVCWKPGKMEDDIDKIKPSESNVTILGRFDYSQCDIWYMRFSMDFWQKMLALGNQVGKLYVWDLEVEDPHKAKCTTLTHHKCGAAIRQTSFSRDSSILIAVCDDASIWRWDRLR
T1 sequence (Q15022 whole entry partner): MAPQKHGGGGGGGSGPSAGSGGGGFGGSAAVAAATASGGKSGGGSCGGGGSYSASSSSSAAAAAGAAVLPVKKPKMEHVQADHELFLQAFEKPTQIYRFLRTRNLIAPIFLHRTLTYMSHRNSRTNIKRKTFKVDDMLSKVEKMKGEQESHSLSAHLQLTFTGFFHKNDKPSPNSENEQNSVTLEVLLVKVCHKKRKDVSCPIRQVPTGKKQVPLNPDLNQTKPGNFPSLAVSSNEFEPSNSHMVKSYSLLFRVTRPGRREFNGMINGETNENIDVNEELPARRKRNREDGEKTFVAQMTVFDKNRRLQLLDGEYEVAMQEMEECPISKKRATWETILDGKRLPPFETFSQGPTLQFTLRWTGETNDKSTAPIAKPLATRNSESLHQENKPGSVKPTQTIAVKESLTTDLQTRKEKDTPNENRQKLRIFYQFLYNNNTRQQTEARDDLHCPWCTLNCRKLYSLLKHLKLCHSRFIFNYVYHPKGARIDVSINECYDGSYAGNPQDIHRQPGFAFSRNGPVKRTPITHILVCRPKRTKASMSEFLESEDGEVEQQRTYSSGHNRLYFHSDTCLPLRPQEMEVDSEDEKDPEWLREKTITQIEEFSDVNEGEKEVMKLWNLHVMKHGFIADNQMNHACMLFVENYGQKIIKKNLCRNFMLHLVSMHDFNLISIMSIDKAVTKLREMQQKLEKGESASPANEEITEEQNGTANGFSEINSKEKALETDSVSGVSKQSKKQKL
T1 sequence (Q09028 whole entry partner): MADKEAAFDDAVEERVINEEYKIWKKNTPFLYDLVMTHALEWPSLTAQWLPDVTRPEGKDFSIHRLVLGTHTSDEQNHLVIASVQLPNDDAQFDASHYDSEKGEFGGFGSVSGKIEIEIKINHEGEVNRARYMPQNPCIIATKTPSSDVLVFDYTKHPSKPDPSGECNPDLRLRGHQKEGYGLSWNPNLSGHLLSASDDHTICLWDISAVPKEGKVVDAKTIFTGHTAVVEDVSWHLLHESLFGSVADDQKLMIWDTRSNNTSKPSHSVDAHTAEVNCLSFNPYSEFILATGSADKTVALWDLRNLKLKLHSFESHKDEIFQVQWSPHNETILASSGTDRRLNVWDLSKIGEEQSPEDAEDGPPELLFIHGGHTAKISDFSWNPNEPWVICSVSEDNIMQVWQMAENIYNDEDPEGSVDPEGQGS
T1 sequence (Q6ZN18 whole entry partner): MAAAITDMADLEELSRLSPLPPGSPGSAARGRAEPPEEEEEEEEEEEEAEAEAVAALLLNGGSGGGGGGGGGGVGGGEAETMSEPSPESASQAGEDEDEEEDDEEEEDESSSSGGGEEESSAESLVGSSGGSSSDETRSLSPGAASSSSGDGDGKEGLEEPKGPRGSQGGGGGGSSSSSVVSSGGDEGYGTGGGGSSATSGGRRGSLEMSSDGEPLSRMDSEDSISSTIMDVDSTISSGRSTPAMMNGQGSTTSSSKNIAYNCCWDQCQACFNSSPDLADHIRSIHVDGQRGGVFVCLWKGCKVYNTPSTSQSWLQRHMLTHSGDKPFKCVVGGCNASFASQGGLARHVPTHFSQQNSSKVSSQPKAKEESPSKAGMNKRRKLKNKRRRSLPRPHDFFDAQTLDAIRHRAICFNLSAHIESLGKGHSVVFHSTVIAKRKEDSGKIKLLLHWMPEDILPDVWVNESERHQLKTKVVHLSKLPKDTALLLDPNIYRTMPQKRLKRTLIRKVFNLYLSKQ
As to the kind of experiment: EZH2 methyltransferase scintillation proximity assay (SPA) with PRC2 complex. The class given is biochemical. As to conditions: 3H-SAM methyl transfer to Histone H3 of HeLa mononucleosomes; 30 min preincubation, 1 hour reaction. A general note: SPA uses beads or plates that emit light when radiolabelled molecules are held near them.
The compound `Cc1cc(=O)c(CNC(=O)c2cc(Cl)cc(OC3CCN(C(=O)OCc4ccccc4)CC3)c2C)c(C)[nH]1` [Example 1, Benzyl 4-(5-chloro-3-(((2,6-dimethyl-4-oxo-1,4-dihydropyridin-3-yl)methyl)carbamoyl) -2-methylphenoxy)piperidine-1-carboxylate] registered an IC50 of 200 nM.

`Cc1cc(=O)c(CNC(=O)c2cc(Cl)cc(OC3CCOCC3)c2C)c(C)[nH]1` [Example 2, 5-Chloro-N-((2,6-dimethyl-4-oxo-1,4-dihydropyridin-3-yl)methyl)-2-methyl-3-((tetrahydro-2H-pyran-4-yl)oxy)benzamide]: it took 6310 nM to reach half-maximal inhibition (IC50). As to `Cc1cc(=O)c(CNC(=O)c2cc(Cl)cc(OC3CCN(c4ccncn4)CC3)c2C)c(C)[nH]1` [Example 3, 5-Chloro-N-((2,6-dimethyl-4-oxo-1,4-dihydropyridin-3-yl)methyl)-2-methyl-3-((1-(pyrimidin-4-yl)piperidin-4-yl)oxy)benzamide], 251 nM corresponded to half-maximal inhibition (IC50).

On to `Cc1cc(=O)c(CNC(=O)c2cc(Cl)cc(O[C@H]3CC[C@H](C(=O)NCc4ccccc4)CC3)c2C)c(C)[nH]1` [Example 4, 3-(((trans)-4-(Benzylcarbamoyl)cyclohexyl)oxy)-5-chloro-N-((2,6-dimethyl-4-oxo-1,4-dihydropyridin-3-yl)methyl)-2-methylbenzamide], for which the IC50 stood at 40 nM. Turning to `Cc1cc(=O)c(CNC(=O)c2cc(Cl)cc(OC3CCN(c4ccncn4)CC3)c2C)c(C)o1` [Example 5, 5-Chloro-N-((2,6-dimethyl-4-oxo-4H-pyran-3-yl)methyl)-2-methyl-3-((1-(pyrimidin-4-yl)piperidin-4-yl)oxy)benzamide], the IC50 was 3160 nM.

`CCN(c1cc(Cl)cc(C(=O)NCc2c(C)oc(C)cc2=O)c1C)[C@H]1CC[C@H](N(C)C)CC1` [Example 6, 5-Chloro-N-((2,6-dimethyl-4-oxo-4H-pyran-3-yl)methyl)-3-(((trans)-4-(dimethylamino)cyclohexyl)(ethyl)amino)-2-methylbenzamide] came in with an IC50 of 40 nM.

Regarding `Cc1cc(=O)c(CNC(=O)c2cc(Cl)cc(OC3CCN(C(=O)OC(C)(C)C)CC3)c2C)c(C)[nH]1` [Example 8, tert-Butyl 4-(5-chloro-3-(((2,6-dimethyl-4-oxo-1,4-dihydropyridin-3-yl)methyl)carbamoyl)-2-methylphenoxy)piperidine-1-carboxylate], the IC50 came to 795 nM. In turn, `Cc1cc(=O)c(CNC(=O)c2cc(Cl)cc(OC3CCNCC3)c2C)c(C)[nH]1` [Example 9, 5-Chloro-N-((2,6-dimethyl-4-oxo-1,4-dihydropyridin-3-yl)methyl)-2-methyl-3-(piperidin-4-yloxy)benzamide] registered an IC50 of 2500 nM.

The compound `Cc1cc(=O)c(CNC(=O)c2cc(Cl)cc(O[C@H]3CC[C@H](N4CCCC4)CC3)c2C)c(C)[nH]1` [Example 12, 5-Chloro-N-((2,6-dimethyl-4-oxo-1,4-dihydropyridin-3-yl)methyl)-2-methyl-3-(((1r,4r)-4-(pyrrolidin-1-yl)cyclohexyl)oxy)benzamide] yielded an IC50 of 795 nM. As to `Cc1cc(=O)c(CNC(=O)c2cc(Cl)cc(OC3CCN(C)CC3)c2C)c(C)[nH]1` [Example 13, 5-Chloro-N-((2,6-dimethyl-4-oxo-1,4-dihydropyridin-3-yl)methyl)-2-methyl-3-((1-methylpiperidin-4-yl)oxy)benzamide], 5000 nM corresponded to half-maximal inhibition (IC50). Then `Cc1cc(=O)c(CNC(=O)c2cc(Cl)cc(O[C@H]3CC[C@H](N(C)C)CC3)c2C)c(C)[nH]1` [Example 14, 5-Chloro-N-((2,6-dimethyl-4-oxo-1,4-dihydropyridin-3-yl)methyl)-3-(((trans)-4-(dimethylamino)cyclohexyl)oxy)-2-methylbenzamide], with 395 nM; and `CCN(c1cc(Br)cc(C(=O)NCc2c(C)[nH]c(C)cc2=O)c1C)C1CCOCC1` [Example 15, 5-Bromo-N-((2,6-dimethyl-4-oxo-1,4-dihydropyridin-3-yl)methyl)-3-(ethyl(tetrahydro-2H-pyran-4-yl)amino)-2-methylbenzamide], with 40 nM. In turn, `CCN(c1cc(Cl)cc(C(=O)NCc2c(C)[nH]c(C)cc2=O)c1C)[C@H]1CC[C@H](N(C)C)CC1` [Example 16, 5-Chloro-N-((2,6-dimethyl-4-oxo-1,4-dihydropyridin-3-yl)methyl)-3-(((trans)-4-(dimethylamino)cyclohexyl)(ethyl)amino)-2-methylbenzamide] came in with an IC50 of 3 nM. The value for `CCN(c1cc(Cl)cc(C(=O)NCc2c(C)[nH]c(C)c(N)c2=O)c1C)C1CCOCC1` [Example 17] was 32 nM; that for `CCN(c1cc(Br)cc(C(=O)NCc2c(C)[nH]c(C)c(N)c2=O)c1C)[C@H]1CC[C@H](N(C)C)CC1` [Example 18, N-((5-Amino-2,6-dimethyl-4-oxo-1,4-dihydropyridin-3-yl)methyl)-5-bromo-3-(((1r,4r)-4-(dimethylamino)cyclohexyl)(ethyl)amino)-2-methylbenzamide] was 32 nM.

`CCN(c1cc(Br)cc(C(=O)NCc2c(C)[nH]c(C)cc2=O)c1C)[C@H]1CC[C@H](N(C)C)CC1` [Example 19, 5-Bromo-N-((2,6-dimethyl-4-oxo-1,4-dihydropyridin-3-yl)methyl)-3-(((1r,4r)-4-(dimethylamino)cyclohexyl)(ethyl)amino)-2-methylbenzamide] came in with an IC50 of 40 nM. The IC50 values of the last two compounds are within 1.5-fold of each other. The value for `CCN(c1cc(Br)cc(C(=O)NCc2c(C)[nH]c(C)c(N)c2=O)c1C)[C@H]1CC[C@H](N2CCOCC2)CC1` [Example 20, N-((5-Amino-2,6-dimethyl-4-oxo-1,4-dihydropyridin-3-yl)methyl)-5-bromo-3-(ethyl((1r,4r)-4-morpholinocyclohexyl)amino)-2-methylbenzamide] was 50 nM.
